# Experimental data reported in patent publication US3958011A, “Compositions of tri-n-propylacetic acid and salts thereof and treatment of neurological disorders with such compositions” (priority 1972, dated 1976).
# Columns and labels:
# mice [1] = assay: Evasion test (tranquillizing properties); format: in vivo; conditions: for Total number of exits per batch: batch of 28 mice; for Average time before first exit: controls 14
# Procedure: This test enables the exploring capacities of mice to be studied. A parallelepipedic lidless plywood box is used which contains an inclined plane, also of plywood, covered with a fine mesh. A horizontal datum line is marked on the inclined plane 2 cm below the point at which the plane bears on the box edge. The whole device is placed in an artificially lit room away from all shrill noise. Any crossing, in an upward direction, by a mouse of the datum line is termed an "exit".
# The test was carried out on batches of 28 mice weighing about 22 g. The animals of each batch received an intraperitoneal dose of the compound to be studied so that each batch received a higher dose than the preceding batch.
# Thirty minutes after administration of the compound, the animals were placed in the box by batches and kept at the bottom for 10 seconds by a movable board. The average length or time after which the first exit occurred was noted as well as the total number of exits per batch every minute for 5 minutes. The same details were also recorded for a control batch which had not received the compound. The following results were obtained with the preferred compound of the invention namely sodium tri-n-propylacetate: […]
# mice [2] = assay: Hole-board test (tranquillizing properties); format: in vivo, mice (OF 1); conditions: for Total number of holes explored: batch of 10
# Procedure: This test enables a quantitative evaluation to be made of the exploring capabilities of mice in relation to their curiosity. The material comprises a board 40 cm × 40 cm and 1.7 cm thick in which 16 holes, 3 cm in diameter, have been cut. The board is placed upon four legs sufficiently high (1.5 m) for the holes to appear bottomless to the animals. The experiment is carried out in as great a silence as possible.
# The test was performed on batches of 10 male OF 1 mice weighing about 23 g. The animals of each batch were given an intraperitoneal dose of the compound to be tested so that each batch received a higher dose than the preceding batch. […] Thirty minutes after administration, each batch was placed in the middle of the board and the total number of holes explored by each batch was noted every minute for 5 minutes.
structure (smiles),measurement,setting,value
"CCCC(CCC)(CCC)C(=O)[O-].[Na+] [Sodium tri-n-propylacetate, sodium tri-n-propylacetate]",Total number of exits per batch,"mice [1]; 50 mg/kg i.p., 1 min.",54
same,Total number of exits per batch,"mice [1]; 50 mg/kg i.p., 2 min.",44
same,Total number of exits per batch,"mice [1]; 50 mg/kg i.p., 3 min.",43
same,Total number of exits per batch,"mice [1]; 50 mg/kg i.p., 4 min.",41
same,Total number of exits per batch,"mice [1]; 50 mg/kg i.p., 5 min.",28
same,Average time before first exit,mice [1]; 50 mg/kg i.p.,25 s
same,Total number of exits per batch,"mice [1]; 75 mg/kg i.p., 1 min.",44
same,Total number of exits per batch,"mice [1]; 75 mg/kg i.p., 2 min.",37
same,Total number of exits per batch,"mice [1]; 75 mg/kg i.p., 3 min.",31
same,Total number of exits per batch,"mice [1]; 75 mg/kg i.p., 4 min.",34
same,Total number of exits per batch,"mice [1]; 75 mg/kg i.p., 5 min.",28
same,Average time before first exit,mice [1]; 75 mg/kg i.p.,21 s
same,Total number of holes explored,"mice [2]; 50 mg/kg i.p., 1 min.",15
same,Total number of holes explored,"mice [2]; 50 mg/kg i.p., 2 min.",13
same,Total number of holes explored,"mice [2]; 50 mg/kg i.p., 3 min.",14
same,Total number of holes explored,"mice [2]; 50 mg/kg i.p., 4 min.",19
same,Total number of holes explored,"mice [2]; 50 mg/kg i.p., 5 min.",17
same,Total number of holes explored,"mice [2]; 75 mg/kg i.p., 1 min.",2
same,Total number of holes explored,"mice [2]; 75 mg/kg i.p., 2 min.",6
same,Total number of holes explored,"mice [2]; 75 mg/kg i.p., 3 min.",3
same,Total number of holes explored,"mice [2]; 75 mg/kg i.p., 4 min.",1
same,Total number of holes explored,"mice [2]; 75 mg/kg i.p., 5 min.",7
same,Effect on the animals' curiosity,"mice [2]; hole-board test, in words",tends to reduce the animals' curiosity
